Experimental data taken from ChEMBL document CHEMBL5390293, “Additional Sarasinosides from the Marine Sponge Melophlus sarasinorum Collected from the Bismarck Sea” (J Nat Prod, 2023).
Calls of active or inactive are those of the source. No cut-off for these calls is given here.

Key:
A549 = assay: Cytotoxicity against human A549 cells assessed as cell viability at 20 ug/ml by MTT assay; type: functional, cell-based; settings: dose 20.0 µg/ml
A2058 = assay: Cytotoxicity against human A2058 cells assessed as cell viability at 20 ug/ml by MTT assay; type: functional, cell-based; settings: dose 20.0 µg/ml
HepG2 [1] = assay: Cytotoxicity against human HepG2 cells assessed as cell viability at 20 ug/ml by MTT assay; type: functional, cell-based; settings: dose 20.0 µg/ml
MCF7 = assay: Cytotoxicity against human MCF7 cells assessed as cell viability at 20 ug/ml by MTT assay; type: functional, cell-based; settings: dose 20.0 µg/ml
MIA PaCa-2 = assay: Cytotoxicity against human MIA PaCa-2 cells assessed as cell viability at 20 ug/ml by MTT assay; type: functional, cell-based; settings: dose 20.0 µg/ml
Staphylococcus aureus = assay: Antimicrobial activity against methicillin sensitive Staphylococcus aureus assessed as bacterial growth inhibition; type: functional, organism-based
Escherichia coli = assay: Antimicrobial activity against Escherichia coli assessed as bacterial growth inhibition; type: functional, organism-based
Acinetobacter baumannii = assay: Antimicrobial activity against Acinetobacter baumannii assessed as bacterial growth inhibition; type: functional, organism-based
Nakaseomyces glabratus = assay: Antimicrobial activity against Candida glabrata assessed as fungal growth inhibition; type: functional, organism-based
Candida albicans = assay: Antimicrobial activity against Candida albicans assessed as fungal growth inhibition; type: functional, organism-based
Pichia kudriavzevii = assay: Antimicrobial activity against Pichia kudriavzevii assessed as fungal growth inhibition; type: functional, organism-based
Candida parapsilosis = assay: Antimicrobial activity against Candida parapsilosis assessed as fungal growth inhibition; type: functional, organism-based
Candida tropicalis = assay: Antimicrobial activity against Candida tropicalis assessed as fungal growth inhibition; type: functional, organism-based
Aspergillus fumigatus = assay: Antimicrobial activity against Aspergillus fumigatus assessed as fungal growth inhibition; type: functional, organism-based
HepG2 [2] = assay: Cytotoxicity against human HepG2 cells incubated for 48 hrs by absorbance based assay; type: functional, cell-based; settings: HepG2, 48 h
N2a = assay: Cytotoxicity against mouse Neuro2a cells incubated for 24 hrs by absorbance based assay; type: functional, cell-based

Row | SMILES | Activity (A549) | Activity (A2058) | Activity (HepG2 [1]) | Activity (MCF7) | inhibition (MIA PaCa-2) | inhibition (Staphylococcus aureus) | inhibition (Escherichia coli) | inhibition (Acinetobacter baumannii) | inhibition (Nakaseomyces glabratus) | inhibition (Candida albicans) | inhibition (Pichia kudriavzevii) | inhibition (Candida parapsilosis) | inhibition (Candida tropicalis) | inhibition (Aspergillus fumigatus) | IC50 (HepG2 [2]) [µM] | IC50 (N2a) [µM]
1 | CC(=O)N[C@H]1[C@H](O[C@@H]2CO[C@@H](O[C@H]3CC[C@]4(C)C5=C(CC[C@H]4C3(C)C)[C@@H]3CC[C@H]([C@H](C)CC(=O)C=C(C)C)[C@@]3(C)CC5)[C@H](O[C@@H]3O[C@H](CO[C@@H]4OC[C@@H](O)[C@H](O)[C@H]4O)[C@@H](O)[C@H](O)[C@H]3NC(C)=O)[C@H]2O)O[C@H](CO)[C@H](O)[C@@H]1O | inactive | inactive | inactive | inactive | inactive | inactive | inactive | inactive | inactive | inactive | inactive | inactive | inactive | inactive | – | –
2 | CO[C@H]1C[C@H]([C@H](C)CC(=O)C=C(C)C)[C@@]2(C)CC[C@@]3(O)C(=C12)CC[C@H]1C(C)(C)[C@@H](O[C@@H]2OC[C@@H](O[C@@H]4O[C@H](CO)[C@H](O)[C@H](O)[C@H]4NC(C)=O)[C@H](O)[C@H]2O[C@@H]2O[C@H](CO[C@@H]4OC[C@@H](O)[C@H](O)[C@H]4O)[C@@H](O)[C@H](O)[C@H]2NC(C)=O)CC[C@@]13C | inactive | inactive | inactive | inactive | inactive | inactive | inactive | inactive | inactive | inactive | inactive | inactive | inactive | inactive | – | –
3 | CO[C@@H]1C[C@H]([C@H](C)CC(=O)C=C(C)C)[C@@]2(C)CC[C@@]3(O)C(=C12)CC[C@H]1C(C)(C)[C@@H](O[C@@H]2OC[C@@H](O[C@@H]4O[C@H](CO)[C@H](O)[C@H](O)[C@H]4NC(C)=O)[C@H](O)[C@H]2O[C@@H]2O[C@H](CO[C@@H]4OC[C@@H](O)[C@H](O)[C@H]4O)[C@@H](O)[C@H](O)[C@H]2NC(C)=O)CC[C@@]13C | inactive | inactive | inactive | inactive | inactive | inactive | inactive | inactive | inactive | inactive | inactive | inactive | inactive | inactive | – | –
4 | CC(=O)N[C@H]1[C@H](O[C@@H]2CO[C@@H](O[C@H]3CC[C@]4(C)C5=CC[C@@]6(C)C(=C(CC[C@H]4C3(C)C)O5)CC[C@@H]6[C@H](C)CC(=O)C=C(C)C)[C@H](O[C@@H]3O[C@H](CO[C@@H]4OC[C@@H](O)[C@H](O)[C@H]4O[C@@H]4O[C@H](CO)[C@@H](O)[C@H](O)[C@H]4O)[C@@H](O)[C@H](O)[C@H]3NC(C)=O)[C@H]2O)O[C@H](CO)[C@H](O)[C@@H]1O | – | – | – | – | – | – | – | – | – | – | – | – | – | – | 5.9 | –
5 | CC(=O)N[C@H]1[C@H](O[C@@H]2CO[C@@H](O[C@H]3CC[C@]4(C)C5=C(CC[C@H]4C3(C)C)C3CC[C@H]([C@H](C)CC(=O)C=C(C)C)[C@@]3(C)CC5)[C@H](O[C@@H]3O[C@H](CO[C@@H]4OC[C@@H](O)[C@H](O)[C@H]4O[C@@H]4O[C@H](CO)[C@H](O)[C@@H](O)[C@H]4O)[C@@H](O)[C@H](O)[C@H]3NC(C)=O)[C@H]2O)O[C@H](CO)[C@H](O)[C@@H]1O (some centres undefined) | – | – | – | – | – | – | – | – | – | – | – | – | – | – | – | 5.8
